Assay results reported in ChEMBL document CHEMBL1156800, “Probing Torpedo californica acetylcholinesterase catalytic gorge with two novel bis-functional galanthamine derivatives” (J Med Chem, 2010).

Target: Acetylcholinesterase (Homo sapiens, UniProt P22303)
Test: Inhibition of human recombinant AChE

Chain of Acetylcholinesterase (P22303 whole entry): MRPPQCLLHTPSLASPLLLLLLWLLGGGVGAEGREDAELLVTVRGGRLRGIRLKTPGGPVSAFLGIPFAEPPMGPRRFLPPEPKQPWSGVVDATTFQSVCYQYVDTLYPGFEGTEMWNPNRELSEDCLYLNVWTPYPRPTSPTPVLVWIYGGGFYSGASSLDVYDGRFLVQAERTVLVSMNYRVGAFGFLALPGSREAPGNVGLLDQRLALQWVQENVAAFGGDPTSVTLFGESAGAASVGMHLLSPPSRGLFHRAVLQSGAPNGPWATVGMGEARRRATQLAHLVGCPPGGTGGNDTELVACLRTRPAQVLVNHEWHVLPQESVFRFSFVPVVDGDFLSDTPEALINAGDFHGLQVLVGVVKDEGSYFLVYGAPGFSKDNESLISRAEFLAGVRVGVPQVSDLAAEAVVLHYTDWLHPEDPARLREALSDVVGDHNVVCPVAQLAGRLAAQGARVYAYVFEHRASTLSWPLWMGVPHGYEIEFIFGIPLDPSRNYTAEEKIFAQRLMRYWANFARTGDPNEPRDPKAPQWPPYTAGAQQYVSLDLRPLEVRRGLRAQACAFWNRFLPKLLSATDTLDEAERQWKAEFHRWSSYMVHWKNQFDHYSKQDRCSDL

COc1ccc2c3c1O[C@H]1C[C@@H](O)C=C[C@@]31CCN(CCCCCCCCN1C(=O)c3ccccc3S1(=O)=O)C2 showed an IC50 of 0.05 µM.
